According to US10555528B1, “Herbicidal composition and method for controlling weeds” (SUMITOMO CHEMICAL COMPANY, LIMITED, priority 2019, dated 2020):

Key:
corn plant = experiment: Spot-on crop injury test on corn leaf; assay type: in vivo; details: corn at 2.5-leaf stage, 2 micro liter droplet spotted on 2nd leaf; glufosinate-ammonium 40,000 ng/plant, PPO inhibitor none or 20 ng/plant (weight ratio 1/2,000); visually estimated 3 days after treatment, % of total area of treated leaf
Text: 3 days after the spot-on treatments, the injured area of the treated leaf was visually estimated as a percentage on the total area of the treated leaf.

soybean plant = experiment: Spot-on crop injury test on soybean leaf; assay type: in vivo; details: soybean at 2 trifoliate leaf stage, 2 micro liter droplet spotted on 2nd trifoliate leaf; glufosinate-ammonium 400,000 ng/plant, PPO inhibitor none or 0.2 ng/plant (weight ratio 1/2,000,000); visually estimated 6 days after treatment, % of total area of treated leaf
Text: One droplet having 2 micro liter of a commercial formulation of glufosinate-ammonium (manufactured by Bayer Cropscience KK under the trade name of Basta) having 200,000 ppm (200 g/L) of glufosinate-ammonium was spotted on the 2nd trifoliate leaf of a soybean plant at the stage of 2 trifoliate leaf.
6 days after the spot-on treatments, the injured area of the treated leaf was visually estimated as a percentage on the total area of the treated leaf.

`CP(=O)(O)CCC(N)C(=O)O` (centres unmarked) [Glufosinate-ammonium, glufosinate-ammonium] was tested, and the Injured leaf area (corn plant) was 60% and the Injured leaf area (soybean plant) was 70%.
